Reference: paper PMC9246773, “Assessing the Activity of Antimicrobial Peptides Against Common Marine Bacteria Located in Rotifer (Brachionus plicatilis) Cultures” (Probiotics and Antimicrobial Proteins, 2022)
No end group written: not given here.

Columns and labels:
Assay type in all cases: cell-based
Vibrio scophthalmi [1] = details: 48 h
Procedure: (§1) A range of bacterial species with the potential to be transferred to developing fish larvae as pathogens or probiotics were selected for use in the study (Table 2). Bacterial isolates were stored at −80 °C and thawed, and 25 µL of the isolates was spread onto marine salt agar (MSA) media. All isolates were incubated at 25 °C for 18 h to reach mid-log growth phase. All isolates were sub-cultured and identified using mass spectrometry (MALDI-TOF) using the BioTyper and MBT 8468 library (Bruker Pty Ltd). The isolate Tenacibaculum discolor was plated on Anacker and Oradal’s marine (AOM) media, incubated for 48 h and identified using the aforementioned method. Bacterial isolates were suspended in sterile saline (0.75% NaCl w/v) to 0.5 McFarland standard. […] The bacterial isolates T. discolor and Pseudoalteromonas sp. require marine salts to grow and were not added to MHB (0‰). The isolate T. discolor requires low nutrients to grow, therefore, a separate MHB (25‰) was prepared at a diluted ratio of 1 part MHB and 7 parts artificial seawater (25‰).
(§2) The protocol was followed to determine the minimum inhibitory concentration (MIC) of the selected peptides. Two MIC assays were performed, firstly to determine whether each peptide precipitated in MHB and thereby required acetic acid adjustments (supplementary materials) and secondly, to determine the antimicrobial activity of each peptide in artificial seawater (25‰). Peptide stock solutions (1.3 mg mL^−1) were made by diluting the peptides in sterile deionised water. MHB was made with deionised water to reach a concentration of approaching 0‰ and artificial sea salts (Sigma-Aldrich® S9883) to reach a salinity of 25‰.
(§3) A broth microdilution protocol was followed to test whether the AMPs precipitated in MHB. The isolates T. discolor and Pseudoalteromonas were excluded from this assay because they required marine salts for growth. The peptides HHC10 and HHC36 previously required acetic acid adjustments according to [63] and were not trialled in this assay. To test if peptides required acetic acid, each peptide was diluted 1:2 in acetic acid (0.02% acetic acid w/v, containing 0.4% BSA) solution. In a 96-well polypropylene microtitre plates (Costar® 3879), 100 µL of this peptide stock was added to the first well for each bacterial isolate tested and serially diluted 2-fold with acetic acid (0.01% acetic acid w/v, containing 0.2% BSA). From each well, 10 µL of each peptide concentration was added to the corresponding wells of a new 96-well microtitre plate. From each of the bacterial suspensions in MHB (0‰), 90 µL was added to each well. […] From each of the bacterial suspensions in MHB (0‰), 50 µL was added to each well. All peptide concentrations ranged from 0.125 - 65µg mL^-1 and the bacterial suspension in each well was approximately 5 × 10^5 CFU mL^-1. Antimicrobial peptides that have an MIC value two or more dilutions higher in the assay with no acetic acid, compared to the assay with acetic acid, require acetic acid adjustments. The 96-well plates were incubated at 25 °C and read at 24 and 48 hours. The MIC was visually determined using a Sensititre™ Vizion™ Digital MIC Viewing System (Thermo Scientific™), and the lowest AMP concentration that had no bacterial growth was recorded as the MIC after 48 hours. Each bacterium was trialled in duplicate.

Vibrio harveyi [2] = details: 48 h
Procedure: as §1, §2, §3

[3] = tested on: Vibrio harveyi (ATCC 35084); details: ATCC 35084, 48 h
Procedure: as §1, §2, §3

Vibrio rotiferianus [4] = details: 48 h
Procedure: as §1, §2, §3

Vibrio alginolyticus [5] = details: 48 h
Procedure: as §1, §2, §3

[6] = tested on: Escherichia coli (ATCC 25922); details: ATCC 25922, 48 h
Procedure: as §1, §2, §3

Shewanella sp. [7] = details: 48 h
Procedure: as §1, §2, §3

Vibrio scophthalmi [8] = details: 48 h; remark: listed apart in the source
Procedure: as §1, §2
(§4) Once the acetic acid requirement for each peptide was determined (Table 3), the antimicrobial activity of each peptide was tested at a salinity of 0‰ and 25‰ for all bacterial isolates. A stock solution for peptides that required acetic acid was prepared by a 1:2 dilution in acetic acid (0.02% acetic acid w/v, containing 0.4% BSA) solution. In a 96-well polypropylene microtitre plates (Costar® 3879), 100 µL of this peptide stock was added to the first well for each bacterial isolate tested and serially diluted twofold with acetic acid (0.01% acetic acid w/v, containing 0.2% BSA). From each well, 10 µL of each peptide concentration was added to the corresponding wells of a new 96-well microtitre plate. From each of the bacterial suspensions (0‰), 90 µL was added to each well. […] Twofold serial dilutions were made with MHB (0‰). From each of the bacterial suspensions (0‰), 50 µL was added to each well. The same method was followed for testing peptides in MHB at 25‰. All peptide concentrations ranged from 0.125 to 65 µg mL^−1, and the bacterial suspension in each well was approximately 5 × 10^5 CFU mL^−1. The different salinities were used to compare any differences in antimicrobial activity in 0‰ and 25‰ water. […] Each bacterium was trialled in duplicate.

Vibrio harveyi [9] = details: 48 h; remark: listed apart in the source
Procedure: as §1, §2, §4

Pseudoalteromonas sp. = details: 48 h
Procedure: as §1, §2, §4

[10] = tested on: Vibrio harveyi (ATCC 35084); details: ATCC 35084, 48 h; remark: listed apart in the source
Procedure: as §1, §2, §4

Vibrio rotiferianus [11] = details: 48 h; remark: listed apart in the source
Procedure: as §1, §2, §4

Tenacibaculum discolor = details: 48 h
Procedure: as §1, §2, §4

Vibrio alginolyticus [12] = details: 48 h; remark: listed apart in the source
Procedure: as §1, §2, §4

[13] = tested on: Escherichia coli (ATCC 25922); details: ATCC 25922, 48 h; remark: listed apart in the source
Procedure: as §1, §2, §4

Shewanella sp. [14] = details: 48 h; remark: listed apart in the source
Procedure: as §1, §2, §4

## WVGVIIKWGLKL-NH2 [Peptide 3018]
Vibrio scophthalmi [1]
  MIC V. scophthalmi, Acetic: 0.25 µg/mL
  MIC V. scophthalmi, No acetic: 2.03 µg/mL
Vibrio harveyi [2]
  MIC V. harveyi, Acetic: 16.25 µg/mL
  MIC V. harveyi, No acetic: 16.25 µg/mL
[3]
  MIC V. harveyi ATCC 35084, Acetic: 16.25 µg/mL
  MIC V. harveyi ATCC 35084, No acetic: 8.13 µg/mL
Vibrio rotiferianus [4]
  MIC V. rotiferianus, Acetic: 8.13 µg/mL
  MIC V. rotiferianus, No acetic: 4.06 µg/mL
Vibrio alginolyticus [5]
  MIC V. alginolyticus, Acetic: 8.13 µg/mL
  MIC V. alginolyticus, No acetic: 4.06 µg/mL
[6]
  MIC E. coli ATCC 25922, Acetic: > 65 µg/mL
  MIC E. coli ATCC 25922, No acetic: 16.25 µg/mL
Shewanella sp. [7]
  MIC Shewanella sp., Acetic: 16.25 µg/mL
  MIC Shewanella sp., No acetic: 8.13 µg/mL
Vibrio scophthalmi [8]
  MIC V. scophthalmi, salinity 0‰: 1.02 µg/mL
  MIC V. scophthalmi, salinity 25‰: > 65 µg/mL
Vibrio harveyi [9]
  MIC V. harveyi, salinity 0‰: 16.25 µg/mL
  MIC V. harveyi, salinity 25‰: > 65 µg/mL
Pseudoalteromonas sp.
  MIC Pseudoalteromonas sp., salinity 25‰: > 65 µg/mL
[10]
  MIC V. harveyi ATCC 35084, salinity 0‰: 32.5 µg/mL
  MIC V. harveyi ATCC 35084, salinity 25‰: > 65 µg/mL
Vibrio rotiferianus [11]
  MIC V. rotiferianus, salinity 0‰: 8.13 µg/mL
  MIC V. rotiferianus, salinity 25‰: > 65 µg/mL
Tenacibaculum discolor
  MIC T. discolor, salinity 25‰: > 65 µg/mL
Vibrio alginolyticus [12]
  MIC V. alginolyticus, salinity 0‰: 2.03 µg/mL
  MIC V. alginolyticus, salinity 25‰: > 65 µg/mL
[13]
  MIC E. coli ATCC 25922, salinity 0‰: 65 µg/mL
  MIC E. coli ATCC 25922, salinity 25‰: > 65 µg/mL
Shewanella sp. [14]
  MIC Shewanella sp., salinity 0‰: 16.25 µg/mL
  MIC Shewanella sp., salinity 25‰: > 65 µg/mL

## KRWWKWWRR-NH2 [HHC36]
Vibrio scophthalmi [8]
  MIC V. scophthalmi, salinity 0‰: 2.03 µg/mL
  MIC V. scophthalmi, salinity 25‰: > 65 µg/mL
Vibrio harveyi [9]
  MIC V. harveyi, salinity 0‰: 32.5 µg/mL
  MIC V. harveyi, salinity 25‰: > 65 µg/mL
Pseudoalteromonas sp.
  MIC Pseudoalteromonas sp., salinity 25‰: > 65 µg/mL
[10]
  MIC V. harveyi ATCC 35084, salinity 0‰: 32.5 µg/mL
  MIC V. harveyi ATCC 35084, salinity 25‰: > 65 µg/mL
Vibrio rotiferianus [11]
  MIC V. rotiferianus, salinity 0‰: > 65 µg/mL
  MIC V. rotiferianus, salinity 25‰: > 65 µg/mL
Tenacibaculum discolor
  MIC T. discolor, salinity 25‰: > 65 µg/mL
Vibrio alginolyticus [12]
  MIC V. alginolyticus, salinity 0‰: > 65 µg/mL
  MIC V. alginolyticus, salinity 25‰: > 65 µg/mL
[13]
  MIC E. coli ATCC 25922, salinity 0‰: 2.03 µg/mL
  MIC E. coli ATCC 25922, salinity 25‰: > 65 µg/mL
Shewanella sp. [14]
  MIC Shewanella sp., salinity 25‰: > 65 µg/mL
